This passage reports IC50 results from ChEMBL document CHEMBL5729639, “FGFR4 inhibitor and preparation method and use thereof” (2023).

A value given as a limit tells only on which side of the number the result lay.

The assay deals with Fibroblast growth factor receptor 1 (Homo sapiens, UniProt P11362). Nature of the assay: Enzymologic Experiment of FGFR1: In this experiment, the inhibitory effect of the compounds on FGFR1 kinase activity was tested by a fluorescence resonance energy transfer (TR-FRET) method, and the half maximal inhibitory concentration (IC50) of the compounds on the FGFR1 kinase activity was determined. 1) 1˜5 μL of FGFR1 enzymatic solution was added to a 384-well plate, and the final concentration of the enzyme was 0.1˜5 nM. 2) 1˜5 μL of diluted solution in gradient of the compound was added.3) 1˜5 μL of a substrate mixture containing substrate polypeptide with a final concentration of 5˜50 nM and ATP with a final concentration of 10˜200 μM was added. 4) The mixture was incubated for 0.5-3 hours at room temperature. 5) 10 μL of EDTA and a test solution comprising labeled antibody were added, and the plate was incubated for 1 hour at room temperature. 6) The fluorescence signal values of each plate were determined by a microplate reader at 665 nm. 7) The inhibition rates were calculated according to the fluorescence signal values.
Chain of Fibroblast growth factor receptor 1 (P11362 whole entry): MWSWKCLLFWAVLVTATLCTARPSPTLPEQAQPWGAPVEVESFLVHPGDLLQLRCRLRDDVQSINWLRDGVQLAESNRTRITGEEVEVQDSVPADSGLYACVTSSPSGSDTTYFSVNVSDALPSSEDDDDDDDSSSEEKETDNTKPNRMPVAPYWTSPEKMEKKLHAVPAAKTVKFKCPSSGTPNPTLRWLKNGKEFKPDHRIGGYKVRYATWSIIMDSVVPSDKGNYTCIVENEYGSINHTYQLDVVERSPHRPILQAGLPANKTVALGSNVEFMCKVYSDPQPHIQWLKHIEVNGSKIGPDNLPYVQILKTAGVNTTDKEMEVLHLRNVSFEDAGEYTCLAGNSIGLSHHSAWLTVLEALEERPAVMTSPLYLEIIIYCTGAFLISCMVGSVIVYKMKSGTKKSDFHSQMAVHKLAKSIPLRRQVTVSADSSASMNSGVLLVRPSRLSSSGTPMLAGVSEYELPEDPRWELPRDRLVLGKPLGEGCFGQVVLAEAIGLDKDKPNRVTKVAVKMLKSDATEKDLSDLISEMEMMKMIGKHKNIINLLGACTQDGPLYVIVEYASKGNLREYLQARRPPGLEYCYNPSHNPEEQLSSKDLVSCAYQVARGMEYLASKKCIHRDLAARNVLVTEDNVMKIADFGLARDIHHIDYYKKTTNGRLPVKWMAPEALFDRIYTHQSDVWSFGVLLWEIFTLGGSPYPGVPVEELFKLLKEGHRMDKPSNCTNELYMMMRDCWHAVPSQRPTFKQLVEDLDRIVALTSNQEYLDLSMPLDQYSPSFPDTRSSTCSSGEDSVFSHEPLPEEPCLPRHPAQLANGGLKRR

Turning to `COCCNc1cc(NC(=O)N2CCCc3cc(CN(C=O)C[C@@H]4CCCO4)c(C=O)nc32)ncc1C#N`, the IC50 is greater than 10 µM.

As for `COCCNc1cc(NC(=O)N2CCCc3cc(CN(C=O)[C@H]4CCOC4)c(C=O)nc32)ncc1C#N`, the IC50 is greater than 10 µM.

Consider `COC[C@@H](C)Nc1cc(NC(=O)N2CCCc3cc(CN4CC[C@@H](OC)C4=O)c(C=O)nc32)ncc1C#N`, for which the IC50 was greater than 10 µM.

In the case of `COCCNc1cc(NC(=O)N2CCCc3cc(CN(C=O)C[C@H]4CCCO4)c(C=O)nc32)ncc1C#N`, the IC50 was greater than 10 µM.

One may read the IC50 as the midpoint of a concentration-inhibition curve.
